Experimental data published in patent US8759379B2, “Inhibitors of cytochrome P450” (Gilead Sciences, Inc., priority 2008, dated 2014).

Target: T1, CYP450 3A4 (Homo sapiens, UniProt P08684)
T1 construct: Pooled (n≧15 donors) human hepatic microsomal fraction was obtained from BD-Gentest; tissue BD-Gentest (Woburn, Mass.); host or cells: pooled human liver microsomes (n≥15 donors)
Experiment: CYP3A inhibition assay (terfenadine oxidase, human hepatic microsomal fraction)
Assay type: biochemical
Conditions: pooled human hepatic microsomes 0.25 mg/mL, terfenadine 3 μM
Experimental: Pooled (n≧15 donors) human hepatic microsomal fraction was obtained from BD-Gentest (Woburn, Mass.) who also supplied hydroxy-terfenadine, 4′-hydroxydiclofenac and NADPH regenerating system. Ritonavir was prepared from commercial Norvir® oral solution (Abbott Laboratories, Abbott Park, Ill.). Other reagents were from Sigma-Aldrich (St. Louis, Mo.) and included terfenadine, fexofenadine, BRL 15572, diclofenac and mefenamic acid.
Incubations were performed in duplicate in 50 mM potassium phosphate buffer, pH 7.4 with NADPH regenerating system used as described by the manufacturer. […] The final substrate concentrations used were equal to the apparent Km values for the activities determined under the same conditions. Inhibitors were dissolved in DMSO, and the final concentration of DMSO, from both substrate and inhibitor vehicles, was 1% (v/v). Incubations were performed at 37° C. with shaking and were initiated by addition of substrate. Aliquots were then removed at 0, 7 and 15 minutes. Samples were quenched by treatment with an acetonitrile, formic acid, water (94.8%/0.2%/5%, v/v/v) mixture containing internal standard. Precipitated protein was removed by centrifugation at 3000 rpm for 10 min and aliquots of the supernatant were then subjected to LC-MS analysis.
The LC-MS system consisted of a Waters Acquity UPLC, with a binary solvent manager and a refrigerated (8° C.) sample organizer and sample manager, interfaced to a Micromass Quattro Premier tandem mass spectrometer operating in electrospray ionization mode. The column was a Waters Acquity UPLC BEH C18 2.1×50 mm, 1.7 μm […]. Mobile phases consisted of mixtures of acetonitrile, formic acid and water, the composition for mobile phase A being 1%/0.2%/98.8% (v/v/v) and that for mobile phase B being 94.8%/0.2%/5% (v/v/v). The injection volumes were 5 μL and the flow rate was 0.8 mL/min. Concentrations of metabolites were determined by reference to standard curves generated with authentic analytes under the same conditions as the incubations. […]

T1 sequence (P08684 whole entry): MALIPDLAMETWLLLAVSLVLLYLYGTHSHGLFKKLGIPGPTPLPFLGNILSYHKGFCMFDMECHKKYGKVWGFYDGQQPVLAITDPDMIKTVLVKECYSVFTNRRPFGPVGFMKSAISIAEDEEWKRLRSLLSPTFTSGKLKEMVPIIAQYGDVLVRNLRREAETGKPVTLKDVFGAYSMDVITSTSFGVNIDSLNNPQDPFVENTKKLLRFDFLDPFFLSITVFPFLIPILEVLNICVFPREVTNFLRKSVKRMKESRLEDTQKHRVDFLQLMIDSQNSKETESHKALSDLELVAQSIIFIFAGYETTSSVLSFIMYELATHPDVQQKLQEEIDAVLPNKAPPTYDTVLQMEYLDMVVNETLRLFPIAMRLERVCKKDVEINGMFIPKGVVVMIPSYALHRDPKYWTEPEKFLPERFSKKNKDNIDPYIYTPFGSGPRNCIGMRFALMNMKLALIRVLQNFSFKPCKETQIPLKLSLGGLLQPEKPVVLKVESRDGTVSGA

Row | SMILES | IC50 [nM]
1 | CC(C)CN(CC[C@H](Cc1ccccc1)NC(=O)O[C@H]1CO[C@H]2OCC[C@H]21)S(=O)(=O)c1ccc(N)cc1 [Example 27] | 201 to 500
2 | CC(C)CN(CC[C@H](Cc1ccccc1)NC(=O)O[C@H]1CCOC1)S(=O)(=O)c1ccc(N)cc1 [Example 28] | 501 to 1000
3 | CC(C)c1nc(CN(C)C(=O)N[C@H](C(=O)N[C@H](CCN(Cc2ccccc2)C(=O)OCc2cncs2)Cc2ccccc2)C(C)C)cs1 [Example 103] | 100 to 200
